Key:
[1] = system: C8161 melanoma cells; assay: In vivo tumor cell proliferation-to-apoptosis ratio (Ki67 / TUNEL), C8161 tumors; conditions: C8161 cells treated prior to injection into mouse
Description: (§1) (A) In vivo tumor formation in a mouse injected with MDA-MB-231 cells pre-exposed for 3 days to either a control matrix (Matrigel) or a matrix conditioned by hESCs (H9 CMTX) (n=10) (B) C81-61 cells, transfected with either an empty vector or a Nodal expression construct (n=5), and (C) MDA-MB-231 cells treated with either MO^Control or MO^Nodal (n=10). […] (D) The ratio of tumor cell proliferation to apoptosis for C8161 and MDA-MB-231 derived tumors, determined by immunohistochemical staining for Ki67 and terminal deoxynucleotidyl transferase biotin-dUTP nick-end labeling (TUNEL). Prior to injection into a mouse, C8161 and MDA-MB-231 cells were cultured for 3 days on control or hESC conditioned (H9 CMTX) matrices, or treated with MO^Nodal to knock down Nodal expression. […] (E) Immunohistochemical analysis of Ki67 expression (red/brown) and TUNEL staining in orthotopic melanoma (C8161) and breast carcinoma (MDA-MB-231) tumors. […] Proliferation is indicated by Ki67 staining and apoptotic nuclei were detected with confocal microscopy as red staining localized to the nuclei of apoptotic C8161 or MDA-MB-231 cells. […]
(§2) In order to establish a mechanism by which exposure to the hESC microenvironment abrogates tumorigenicity, the effects of this treatment on the in vivo tumor cell proliferation-to-apoptosis ratio were analyzed. […]

[2] = system: MDA-MB-231 breast carcinoma cells; assay: In vivo tumor cell proliferation-to-apoptosis ratio (Ki67 / TUNEL), MDA-MB-231 tumors; conditions: MDA-MB-231 cells treated prior to injection into mouse
Description: as §1, §2

[3] = system: MDA-MB-231 breast carcinoma cells; assay: In vivo tumor formation, MDA-MB-231 cells injected into the mammary fat pad; parameters: species or system mouse; conditions: 500,000 Morpholino-treated MDA-MB-231 cells injected, vs control
Description: The effects of the hESC microenvironment on the in vivo tumorigenicity of melanoma and breast carcinoma cells were examined using orthotopic mouse models. […] In order to further substantiate the role of Nodal in tumorigenicity, and to illuminate a potential mechanism for the tumor-suppressive properties of the hESC microenvironment, previously shown to diminish Nodal expression (FIG. 9), orthotopic mouse models were utilized to examine the effects of: (a) Ectopic Nodal expression on the tumorigenic potential of C81-61 cells (isogenetically matched non-tumorigenic variants of the metastatic C8161 melanoma cell line); and (b) Nodal inhibition on MDA-MB-231 breast carcinoma tumorigenicity. The control C81-61 melanoma cell line was unable to form palpable tumors when 500,000 cells were injected, and using gross observation and histology 5.5 weeks after inoculation, these tumor cells could not be detected at the site of injection. In contrast, 100% of C81-61 cells transfected with a Nodal expression vector formed palpable tumors within 3.5 weeks of injection (FIG. 13B).
5 week old mice were injected subcutaneously with 250,000 C8161 or 500,000 C81-61 human cutaneous melanoma cells in 50 μL of complete RPMI; or 500,000 MDA-MB-231 cells in 50 μL of complete RPMI were injected into the mammary fat pad of 8 week old mice. When tumors became palpable measurements were taken twice per week.

[4] = system: C8161 cells; assay: In vitro proliferation assay (cell count), C8161; format: cell-based, human; conditions: C8161, relative to MO Control; 4 days after plating 15,000 cells
[5] = system: C8161 cells; assay: Anchorage independent growth / soft agar colony formation, C8161; format: cell-based, human; conditions: C8161 cells, soft agar, after 2 weeks
Protocol: An in vitro colony forming assay was used to analyze colony-forming ability of poorly aggressive C81-61 cells, aggressive C8161 cells, C8161 cells treated with MONodal and C8161 cells treated with MONodal and rescued with recombinant Nodal (100 ng/mL). The assay was conducted using 50,000 cells suspended in 0.35% agarose in RPMI containing 10% serum, which were plated into 6-well dishes on 0.5% agar in the same medium. Colonies grew, and pictures were taken at day 7. After 2 weeks, colonies were stained with Crystal Violet and counted.
Clonogenicity of cells are assessed as previously described. Hamburger, A. W., and Salmon, S. E., 1977, Science 197:461-463. Each parameter is tested in triplicate for clone formation in soft agar. Briefly, […] are plated in 60 mm Petri dishes in complete medium placed over the soft agar. On specific days after the cells are plated, phase contrast images of the colonies are taken using a Zeiss Axiovert 25 with an Hitachi HCV-20 color camera.
Anchorage independent growth assays were conducted as previously described. Topczewska et al., 2006, Nat. Med. 12: 925-932.

[6] = system: MDA-MB-231 cells; assay: In vitro proliferation assay (cell count), MDA-MB-231; format: cell-based, human; conditions: MDA-MB-231, relative to MO Control; 4 days after plating 15,000 cells

MO^Nodal: antisense Morpholino to Nodal, 5′-AAGCAGCACCTCCAGCCCTTATATC-3′ (SEQ ID NO: 20) (all phosphorodiamidate morpholino (PMO); further chemistry not fully specified)
ratio of proliferation to apoptosis [1]: decreased
ratio of proliferation to apoptosis [2]: decreased
tumorigenicity [3]: significant reduction
in vitro cell proliferation [4]: reduced proliferation
reduction of colony formation [5]: 57%
in vitro cell proliferation [6]: reduced proliferation

— patent publication US20100105610A1, “Methods of Inhibiting Tumor Cell Aggressiveness Using the Microenvironment of Human Embryonic Stem Cells” (CHILDREN'S MEMORIAL HOSPITAL, priority 2006, published 2010)
